Measurements published in PMC3355094 (PLoS Pathogens, 2012).
Several values for one entry are separate records, joined by “and”; a condition that tells them apart may be missing. Equal values may be shown once.

Test system: CCL1
Test: Glycan array analysis of CCL1 (CFG mammalian glycan array V4.2)
Type: binding, Coprinopsis cinerea
Settings: Alexa Fluor 488 labeled CCL1 200 µg/ml, array V4.2, average of triplicates
Protocol: (§1) Purified CCL1 and CCL2 were fluorescently labeled with Alexa Fluor 488 (Invitrogen) according to the manufacturer's protocol and used (at a final concentration of 200 µg/ml) to probe versions 4.2 and 3.1, respectively, of the mammalian glycan array offered by Core H of the Consortium for Functional Glycomics (CFG).

Compared with GalNAc1-3(Fuc1-2)Gal1-4GlcNAc-Sp8, “Fuc1-2Gal1-3GalNAc1-4(Neu5Ac2-3)Gal1-4Glc-Sp9” is lower in “RFU (relative fluorescence units)” value: 25 RFU for the first, 20 RFU for the second.

First: Fuc1-2Gal1-3GalNAc1-3Gal-Sp9
Second: GlcNAc1-2Man1-3(GlcNAc1-2Man1-6)Man1-4GlcNAc1-4GlcNAc-Sp12
The “RFU (relative fluorescence units)” value of the first is higher: 129 RFU for the first, 90 RFU for the second.

First: [3OSO3]Gal1-4(Fuc1-3)[6OSO3]Glc-Sp0
Second: Fuc-Sp9
The “RFU (relative fluorescence units)” value of the first is higher: 250 RFU for the first, -10 RFU for the second.

Compared with [3OSO3]Gal1-3(Fuc1-4)GlcNAc-Sp8, [3OSO3]Gal1-4(Fuc1-3)GlcNAc-Sp0 is higher in “RFU (relative fluorescence units)” value: 89 RFU for the first, 383 RFU for the second.

Compared with [9NAc]Neu5Ac-Sp8, [9NAc]Neu5Ac2-6Gal1-4GlcNAc-Sp8 is lower in “RFU (relative fluorescence units)” value: 27 RFU for the first, 6 RFU for the second.

First: Fuc1-2Gal1-4(Fuc1-3)GlcNAc-Sp8
Second: [3OSO3]Gal1-3GlcNAc-Sp8
The “RFU (relative fluorescence units)” value of the first is lower: 29 RFU for the first, 173 RFU for the second.

First: Gal1-3(Fuc1-2)Gal1-3GlcNAc-Sp8
Second: C[C@@H]1O[C@@H](OCCCN)[C@@H](O)[C@H](O)[C@@H]1O [Fuc-Sp8]
The “RFU (relative fluorescence units)” value of the first is higher: 31 RFU for the first, 26 RFU for the second.

Going from [3OSO3]Gal1-4[6OSO3]GlcNAc-Sp0 to Fuc1-2Gal1-3GlcNAc-Sp0, the “RFU (relative fluorescence units)” value falls from 293 RFU to 3 RFU.

First: GalNAc1-3(Fuc1-2)Gal1-3GlcNAc-Sp0
Second: [3OSO3]Gal1-4[6OSO3]Glc-Sp8
The “RFU (relative fluorescence units)” value of the first is lower: 100 RFU for the first, 228 RFU for the second.

Compared with GalNAc1-3(Fuc1-2)Gal-Sp18, Fuc1-2Gal1-4Glc-Sp0 is higher in “RFU (relative fluorescence units)” value: 19 RFU for the first, 47 RFU for the second.

First: CC(=O)N[C@H]1[C@H](OCCN)O[C@H](CO)[C@@H](O)[C@@H]1O [GlcNAc-Sp0]
Second: Gal1-4GlcNAc1-2Man1-3(Gal1-4GlcNAc1-2Man1-6)Man1-4GlcNAc1-4GlcNAc-Sp12
The “RFU (relative fluorescence units)” value of the first is lower: 6 RFU for the first, 121 RFU for the second.

Going from Gal1-3(Fuc1-2)Gal1-3GlcNAc-Sp0 to Fuc1-2Gal1-3GlcNAc-Sp8, the “RFU (relative fluorescence units)” value falls from 61 RFU to 18 RFU.

Going from “Fuc1-2Gal1-4(Fuc1-3)GlcNAc1-3Gal1-4(Fuc1-3)GlcNAc1-3Gal1-4(Fuc1-3)GlcNAc-Sp0” to Fuc1-2Gal1-4GlcNAc-Sp8, the “RFU (relative fluorescence units)” value falls from 1835 RFU to 45 RFU.

First: Fuc1-2Gal1-3GalNAc-Sp8
Second: Fuc1-2Gal1-3(Fuc1-4)GlcNAc-Sp8
The “RFU (relative fluorescence units)” value of the first is lower: 70 RFU for the first, 80 RFU for the second.

Going from “GalNAc1-3(Fuc1-2)Gal1-4(Fuc1-3)GlcNAc-Sp0” to GalNAc1-3(Fuc1-2)Gal1-4Glc-Sp0, the “RFU (relative fluorescence units)” value falls from 75 RFU to 2 RFU.

Going from “Fuc1-2Gal1-4GlcNAc1-3Gal1-4GlcNAc1-3Gal1-4GlcNAc-Sp0” to Fuc1-2Gal1-3GlcNAc1-3Gal1-4Glc-Sp8, the “RFU (relative fluorescence units)” value falls from 61 RFU to 1 RFU.

Going from [3OSO3]Gal1-4(Fuc1-3)Glc-Sp0 to “Gal1-4GlcNAc1-3(Gal1-4GlcNAc1-6)GalNAc-Sp8”, the “RFU (relative fluorescence units)” value falls from 140 RFU to 24 RFU.

First: [6OSO3]Gal1-4Glc-Sp8
Second: GalNAc-Sp15
The “RFU (relative fluorescence units)” value of the first is lower: 9 RFU for the first, 148 RFU for the second.

Compared with Gal1-2Gal-Sp8, [6OSO3]Gal1-4Glc-Sp0 is lower in “RFU (relative fluorescence units)” value: 71 RFU for the first, 23 RFU for the second.

Going from Fuc1-2Gal1-3GalNAc-Sp14 to Gal1-3(Fuc1-2)Gal1-4(Fuc1-3)GlcNAc-Sp0, the “RFU (relative fluorescence units)” value rises from 25 RFU to 46 RFU.

Going from GalNAc1-4GlcNAc-Sp0 to [6OSO3]GlcNAc-Sp8, the “RFU (relative fluorescence units)” value rises from -11 RFU to 14 RFU.

Compared with [6OSO3]Gal1-4GlcNAc-Sp8, [3OSO3]Gal1-4(Fuc1-3)GlcNAc-Sp8 is higher in “RFU (relative fluorescence units)” value: 27 RFU for the first, 407 RFU for the second.

Going from Gal1-3(Fuc1-2)Gal1-4GlcNAc-Sp0 to `NCCCO[C@@H]1O[C@H](CO)[C@@H](O)[C@H](O)[C@H]1NC(=O)CO` [GlcN(Gc)-Sp8], the “RFU (relative fluorescence units)” value falls from 41 RFU to 32 RFU.

First: GalNAc1-3Gal1-4Gal1-4GlcNAc-Sp0
Second: GalNAc1-4(Fuc1-2)Gal1-4GlcNAc-Sp8
The “RFU (relative fluorescence units)” value of the first is higher: 18 RFU for the first, 13 RFU for the second.

Going from `C[C@@H]1O[C@@H](OCCCN)[C@H](O)[C@H](O)[C@H]1O` [Rha-Sp8] to [3OSO3]Gal1-4[6OSO3]Glc-Sp0, the “RFU (relative fluorescence units)” value rises from 46 RFU to 329 RFU.

Going from “Fuc1-2Gal1-3GalNAc1-3Gal1-4Gal1-4Glc-Sp9” to [3OSO3]Gal1-3GlcNAc-Sp0, the “RFU (relative fluorescence units)” value rises from 76 RFU to 93 RFU.

First: Fuc1-4GlcNAc-Sp8
Second: [3OSO3]Gal1-4GlcNAc-Sp0
The “RFU (relative fluorescence units)” value of the first is lower: 62 RFU for the first, 141 RFU for the second.

Going from “Fuc1-2Gal1-4(Fuc1-3)GlcNAc1-3Gal1-4(Fuc1-3)GlcNAc-Sp0” to Fuc1-2Gal1-4GlcNAc1-3Gal1-4GlcNAc-Sp0, the “RFU (relative fluorescence units)” value falls from 54 RFU to 15 RFU.

Compared with “Neu5Ac2-6Gal1-4GlcNAc1-2Man1-3(Neu5Ac2-6Gal1-4GlcNAc1-2Man1-6)Man1-4GlcNAc1-4GlcNAc-N(LT)AVL”, GalNAc1-4GlcNAc-Sp8 is lower in “RFU (relative fluorescence units)” value: 78 RFU for the first, 3 RFU for the second.

First: GlcNAc-Sp8
Second: Fuc1-2Gal1-4GlcNAc-Sp0
The “RFU (relative fluorescence units)” value of the first is lower: 4 RFU for the first, 52 RFU for the second.

Going from GalNAc1-3Gal-Sp8 to Fuc1-2Gal1-4(Fuc1-3)GlcNAc-Sp0, the “RFU (relative fluorescence units)” value rises from 8 RFU to 10 RFU.

Going from Neu5Ac2-3[6OSO3]Gal1-4GlcNAc-Sp8 to GalNAc1-3(Fuc1-2)Gal1-4GlcNAc-Sp0, the “RFU (relative fluorescence units)” value falls from 3479 RFU to 82 RFU.

Compared with [3OSO3]Gal-Sp8, Fuc1-2Gal-Sp8 is lower in “RFU (relative fluorescence units)” value: 42 RFU for the first, 12 RFU for the second.

Compared with “Fuc1-2Gal1-3GalNAc1-4(Neu5Ac2-3)Gal1-4Glc-Sp0”, Neu5Ac-Sp11 is higher in “RFU (relative fluorescence units)” value: 5 RFU for the first, 247 RFU for the second.

Going from GalNAc1-4(Fuc1-3)GlcNAc-Sp0 to “Man1-3(Man1-6)Man1-4GlcNAc1-4GlcNAc-Sp12”, the “RFU (relative fluorescence units)” value falls from 7887 RFU to 84 RFU.

First: Gal1-3(Fuc1-2)Gal1-4(Fuc1-3)GlcNAc-Sp8
Second: Fuc1-2Gal1-3GlcNAc1-3Gal1-4Glc-Sp10
The “RFU (relative fluorescence units)” value of the first is higher: 35 RFU for the first, 20 RFU for the second.

First: GlcNAc1-3Gal1-3GalNAc-Sp8
Second: Neu5Ac2-6Gal1-4GlcNAc1-2Man1-3(Neu5Ac2-6Gal1-4GlcNAc1-2Man1-6)Man1-4GlcNAc1-4GlcNAc-Sp13
The “RFU (relative fluorescence units)” value of the first is lower: 11 RFU for the first, 86 RFU for the second.

In the case of Fuc1-3GlcNAc-Sp8, the “RFU (relative fluorescence units)” value is reported as 30 RFU and 54 RFU.
With Gal-Sp8 the “RFU (relative fluorescence units)” value was 99 RFU and 68 RFU.
Neu5Ac-Sp8 was tested, and the “RFU (relative fluorescence units)” value was 113 RFU and 98 RFU.
For GalNAc1-3GalNAc-Sp8, the “RFU (relative fluorescence units)” value was 7 RFU and 14 RFU.
With GalNAc1-3(Fuc1-2)Gal-Sp8 the “RFU (relative fluorescence units)” value was 7 RFU and 8 RFU.

Test system: CCL2
Test: Glycan array analysis of CCL2 (CFG mammalian glycan array V3.1)
Type: binding, Coprinopsis cinerea
Settings: Alexa Fluor 488 labeled CCL2 200 µg/ml, array V3.1, average of triplicates
Protocol: as §1

In the case of `NCCCO[C@H]1O[C@H](CO)[C@@H](O)[C@H](O)[C@@H]1O` [-D-Man–Sp8], the “RFU (relative fluorescence units)” value is reported as 152.9 RFU and 130.5 RFU.
-D-Gal–Sp8 was tested, and the “RFU (relative fluorescence units)” value was 280.7 RFU and 194.7 RFU.

Compared with [3OSO3]Gal1-4(6OSO3)Glc–Sp0, [6OSO3]Gal1-4GlcNAc–Sp8 is lower in “RFU (relative fluorescence units)” value: 151.3 RFU for the first, 133.9 RFU for the second.

First: Gal1-4GlcNAc1-2Man1-3(Gal1-4GlcNAc1-2Man1-6)Man1-4GlcNAc1-
Second: 9NAcNeu5Ac-Sp8
The “RFU (relative fluorescence units)” value of the first is lower: 575.8 RFU for the first, 8595.4 RFU for the second.

Compared with [3OSO3]Gal1-4GlcNAc–Sp0, `C[C@@H]1O[C@@H](OCCCN)[C@H](O)[C@H](O)[C@H]1O` [-L-Rha-Sp8] is lower in “RFU (relative fluorescence units)” value: 115.6 RFU for the first, 112.5 RFU for the second.

Going from (Gal1-4GlcNAc)2-3,6-GalNAc-Sp8 to -L-Fuc–Sp9, the “RFU (relative fluorescence units)” value falls from 397.4 RFU to 136.8 RFU.

Compared with [3OSO3]Gal1-3(Fuc1-4)GlcNAc–Sp8, [3OSO3]Gal1-4(6OSO3)Glc–Sp8 is higher in “RFU (relative fluorescence units)” value: 628.7 RFU for the first, 1039.1 RFU for the second.

Compared with [3OSO3]Gal1-4(Fuc1-3)GlcNAc–Sp8, “Gal1-3GlcNAc1-2Man1-3(Gal1-3GlcNAc1-2Man1-6)Man1-4GlcNAc1-4GlcNAc-Sp19” is higher in “RFU (relative fluorescence units)” value: 265.1 RFU for the first, 453.7 RFU for the second.

In the case of [6OSO3]Gal1-4Glc–Sp8, the “RFU (relative fluorescence units)” value is reported as 269.4 RFU.
